In patent publication US9518094B2 (priority 2010, dated 2016):
In brackets after ≈: the same amount, converted by molar mass. Entries after “also recorded” stand apart in the source; their conditions may differ. Read-outs that look alike come from different tables or passages of the source.

Key:
[1] = Slurry interconversion of solid forms with Form A; type: physicochemical; conditions: slurry of the form together with Form A; resulting form (time)
[2] = tested on: patients; conditions: human, in vivo
[3] = tested on: patients; experiment: Toxicity and adverse events in clinical studies of Compound I; conditions: early development; out of more than 450 patients
[4] = Solid form stability under ambient conditions; type: physicochemical
Procedure: Samples were prepared from Compound I Form A solids or from samples generated from these solids. Form designation for the materials was based on X-ray powder diffraction (XRPD). Care was taken to protect samples from light, unless stated otherwise. Prior to characterization, solids were stored as follows: Form A and Form B (may have contained Form A solids as well) under ambient conditions, Form E and Form H over desiccant in a freezer, Form C in contact with mother liquor in a refrigerator, Form D in contact with mother liquor in a freezer, and Form I in contact with mother liquor under ambient conditions or in a freezer. Due to apparent instability of Form D, all characterization data except solution proton nuclear magnetic resonance spectroscopy (H-NMR) were collected for Form D on the same day. Although the ^1H-NMR analysis was not run until a few days later, the solution for the analysis was prepared on the same day as the rest of the characterization.
A crystal prepared from cold acetone solution was indexed. The indexing solution was determined to be an orthorhombic unit cell with the following cell parameters and calculated volume: a=9.093, b=15.581, c=23.141 Å, V=3278.57(9) Å^3. The formula weight was determined to be 598.81 g/mol. The cell parameters are similar to the cell obtained from the Compound I Form J crystal structure. […]

[5] = Solubility assessment of Compound I Form A in solvents and solvent mixtures (visual observation); type: physicochemical
[6] = Form N solvent removal attempts (heating, vacuum drying, slurry), resulting form by XRPD; type: physicochemical; conditions: for XRPD result after vacuum drying: 43 mg, 42° C. vac dry 22 hours at 20 mTorr
Procedure: The resulting solids were characterized by proton NMR spectroscopy. […] Subsequently, the dried sample was characterized by DSC. The observed results are subject to the conditions used at the time of analysis. […] The remaining solids (43 mg) were dried for approximately 22 hours in a vacuum oven at approximately 42° C., at approximately 20 mTorr. The weight loss was not determined but the dried solids were characterized by XRPD.
Solids were recovered via vacuum filtration, washing with acetonitrile (4×1 mL). The solids were left on the filter under vacuum for several minutes to dry the solids. […] In another embodiment, 309.5 mg of solid were slurried in water (4 mL) for approximately 24.5 hours. Solids were recovered via vacuum filtration, washing with water (2×1 mL). The solids were left on the filter under vacuum for approximately 1.5 hours to dry the solids.

C/C=C1\NC(=O)[C@H]2CSSCC/C=C/[C@H](CC(=O)N[C@H](C(C)C)C(=O)N2)OC(=O)[C@H](C(C)C)NC1=O [Form C, romidepsin]
Slurry interconversion [1]: A + C → A (2 hrs)

C/C=C1\NC(=O)[C@H]2CSSCC/C=C/[C@H](CC(=O)N[C@H](C(C)C)C(=O)N2)OC(=O)[C@H](C(C)C)NC1=O [Compound I, romidepsin]
Severity of observed toxicities [2]: mild to moderate | serial serum troponin levels and multiple gated acquisition (MUGA) scans [2]: consistently normal | deaths during clinical investigations [3]: 6

C/C=C1\NC(=O)[C@H]2CSSCC/C=C/[C@H](CC(=O)N[C@H](C(C)C)C(=O)N2)OC(=O)[C@H](C(C)C)NC1=O [Form I, romidepsin]
Form conversion under ambient conditions ([4]; listed as Compound I Form I): converts to Form H

C/C=C1\NC(=O)[C@H]2CSSCC/C=C/[C@H](CC(=O)N[C@H](C(C)C)C(=O)N2)OC(=O)[C@H](C(C)C)NC1=O [Form A, romidepsin]
solubility ([5]; 2,2,2-trifluoroethanol (TFE), organic solvent or mixture, thermodynamic from solid, 2,2,2-trifluoroethanol (TFE), ambient temperature, reported values <= actual solubility, approximate, read-out: Solubility): > 100 mg/mL | solubility ([5]; 2,2,2-trifluoroethanol (TFE), ambient temperature, reported values <= actual solubility, approximate, listed as Compound I, Form A): 158.9 mg/mL (≈ 294 mM) | solubility ([5]; 2-butanone (MEK), organic solvent or mixture, thermodynamic from solid, 2-Butanone (MEK), ambient temperature, reported values <= actual solubility, approximate, read-out: Solubility): 12.5 mg/mL (≈ 23.1 mM) | solubility ([5]; (0.1:0.1) TFE:DCM, organic solvent or mixture, thermodynamic from solid, (0.1:0.1) TFE:DCM, ambient temperature, reported values <= actual solubility, approximate, read-out: Solubility): 97 mg/mL (≈ 179 mM) | solubility ([5]; (0.5:0.1) acetone:DCM, organic solvent or mixture, thermodynamic from solid, (0.5:0.1) Acetone:DCM, ambient temperature, reported values <= actual solubility, approximate, read-out: Solubility): 38 mg/mL (≈ 70.3 mM) | solubility ([5]; (1:0.1) 2-butanone:TFE, organic solvent or mixture, thermodynamic from solid, (1:0.1) 2-Butanone:TFE, ambient temperature, reported values <= actual solubility, approximate, read-out: Solubility): 20.6 mg/mL (≈ 38.1 mM) | solubility ([5]; (1:0.1) toluene:TFE, organic solvent or mixture, thermodynamic from solid, (1:0.1) Toluene:TFE, ambient temperature, reported values <= actual solubility, approximate, read-out: Solubility): 21.4 mg/mL (≈ 39.6 mM) | solubility ([5]; (1:0.2) acetonitrile (ACN):TFE, organic solvent or mixture, thermodynamic from solid, (1:0.2) Acetonitrile (ACN):TFE, ambient temperature, reported values <= actual solubility, approximate, read-out: Solubility): 17.9 mg/mL (≈ 33.1 mM) | solubility ([5]; (1:0.2) ethanol:TFE, organic solvent or mixture, thermodynamic from solid, (1:0.2) Ethanol:TFE, ambient temperature, reported values <= actual solubility, approximate, read-out: Solubility): 16.3 mg/mL (≈ 30.1 mM) | solubility ([5]; (1:0.5) dioxane:acetone, organic solvent or mixture, thermodynamic from solid, (1:0.5) Dioxane:Acetone, ambient temperature, reported values <= actual solubility, approximate, read-out: Solubility): 13.3 mg/mL (≈ 24.6 mM) | solubility ([5]; (1:1) 2-propanol:acetone, 60 °C, organic solvent or mixture, thermodynamic from solid, (1:1) 2-Propanol:Acetone, hot plate set to 60° C., reported values <= actual solubility, approximate, read-out: Solubility): 11.5 mg/mL (≈ 21.3 mM) | solubility ([5]; (1:1) ethanol/IPA, 70 °C, organic solvent or mixture, thermodynamic from solid, (1:1) Ethanol/IPA, hot plate set to 70° C., reported values <= actual solubility, approximate, read-out: Solubility): 28 mg/mL (≈ 51.8 mM) | solubility ([5]; (1:3) ethanol/IPA, 70 °C, organic solvent or mixture, thermodynamic from solid, (l:3) Ethanol/IPA, hot plate set to 70° C., reported values <= actual solubility, approximate, read-out: Solubility): 10 mg/mL (≈ 18.5 mM) | solubility ([5]; (1.5:0.5) water:DCM, aqueous with cosolvent or surfactant or cyclodextrin, thermodynamic from solid, (1.5:0.5) Water:DCM, ambient temperature, reported values <= actual solubility, approximate, read-out: Solubility): 12.4 mg/mL (≈ 22.9 mM) | solubility ([5]; (1.5:0.8) ethyl acetate:acetone, organic solvent or mixture, thermodynamic from solid, (1.5:0.8) Ethyl Acetate:Acetone, ambient temperature, reported values <= actual solubility, approximate, read-out: Solubility): 8.9 mg/mL (≈ 16.5 mM) | solubility ([5]; (1.5:1) heptane:DCM, 60 °C, organic solvent or mixture, thermodynamic from solid, (1.5:1) Heptane:DCM, hot plate set to 60° C., reported values <= actual solubility, approximate, read-out: Solubility): 8 mg/mL (≈ 14.8 mM) | solubility ([5]; (1.5:1) methanol:TFE, 60 °C, organic solvent or mixture, thermodynamic from solid, (1.5:1) Methanol:TFE, hot plate set to 60° C., reported values <= actual solubility, approximate, read-out: Solubility): 8.7 mg/mL (≈ 16.1 mM) | solubility ([5]; (4.5:3) isopropyl ether:ethanol, organic solvent or mixture, thermodynamic from solid, (4.5:3) Isopropyl Ether:Ethanol, ambient temperature, reported values <= actual solubility, approximate, read-out: Solubility): 6.8 mg/mL (≈ 12.6 mM) | solubility ([5]; Acetone, ambient temperature, reported values <= actual solubility, approximate, listed as Compound I, Form A): 28.2 mg/mL (≈ 52.2 mM) | solubility ([5]; Dichloromethane (DCM), ambient temperature, reported values <= actual solubility, approximate, listed as Compound I Form A): over 100 mg/ml | solubility ([5]; Dimethylformamide (DMF), ambient temperature, reported values <= actual solubility, approximate, listed as Compound I Form A): over 100 mg/ml | solubility ([5]; Dimethylformamide (DMF), ambient temperature, reported values <= actual solubility, approximate, listed as Compound I, Form A): 248.5 mg/mL (≈ 460 mM) | solubility ([5]; acetone, organic solvent or mixture, thermodynamic from solid, Acetone, ambient temperature, reported values <= actual solubility, approximate, read-out: Solubility): 22.4 mg/mL (≈ 41.4 mM) | solubility ([5]; chloroform, organic solvent or mixture, thermodynamic from solid, Chloroform, ambient temperature, reported values <= actual solubility, approximate, read-out: Solubility): 26.5 mg/mL (≈ 49 mM) | solubility ([5]; ethanol (EtOH), organic solvent or mixture, thermodynamic from solid, Ethanol (EtOH), ambient temperature, reported values <= actual solubility, approximate, read-out: Solubility): 23.5 mg/mL (≈ 43.5 mM) | solubility ([5]; isopropanol (IPA), organic solvent or mixture, thermodynamic from solid, Isopropanol (IPA), ambient temperature, reported values <= actual solubility, approximate, read-out: Solubility): 4.6 mg/mL (≈ 8.51 mM) | solubility ([5]; majority of the solvents and solvent combinations tested, organic solvent or mixture, thermodynamic from solid, majority of solvent and solvent combinations tested, read-out: moderate solubility): > 10 mg/mL | solubility ([5]; nitromethane, organic solvent or mixture, thermodynamic from solid, Nitromethane, ambient temperature, reported values <= actual solubility, approximate, read-out: Solubility): 23.6 mg/mL (≈ 43.6 mM) | Slurry interconversion [1]: Remains A

C/C=C1\NC(=O)[C@H]2CSSCC/C=C/[C@H](CC(=O)N[C@H](C(C)C)C(=O)N2)OC(=O)[C@H](C(C)C)NC1=O [Form E, romidepsin]
Slurry interconversion [1]: A + E → A, trace E

C/C=C1\NC(=O)[C@H]2CSSCC/C=C/[C@H](CC(=O)N[C@@H](C(C)C)C(=O)N2)OC(=O)[C@H](C(C)C)NC1=O [Form D, romidepsin]
Slurry interconversion [1]: A + D → A, trace C | Form conversion under ambient conditions [4]: converts to Form A

C/C=C1\NC(=O)[C@H]2CSSCC/C=C/[C@H](CC(=O)N[C@H](C(C)C)C(=O)N2)OC(=O)[C@H](C(C)C)NC1=O [Form N, romidepsin]
XRPD result after heating ([6]; 10.3 mg, heated to 180° C. by DSC (crimped)): Form A + 2 weak peaks | XRPD result after vacuum drying [6]: unknown + Form N | XRPD result after vacuum drying ([6]; listed as Compound I, Form N): contains XRPD peaks of Form N but exhibits additional unknown peaks | XRPD result after slurry ([6]; 152.4 mg, 1 mL acetonitrile, slurry 1 hour): pattern T | HR XRPD result after vacuum drying ([6]; 308.3 mg, RT vac dry 5 days at 5 mTorr): exhibited Form N; also recorded: Form N + weak peak | HR XRPD result after slurry ([6]; 309.5 mg, 4 mL water, slurry 24.5 hours): a mixture of Forms C and A; also recorded: Forms C + A + peaks ^g

C/C=C1\NC(=O)[C@H]2CSSCC/C=C/[C@H](CC(=O)N[C@H](C(C)C)C(=O)N2)OC(=O)[C@H](C(C)C)NC1=O [Form B, romidepsin]
Slurry interconversion [1]: A + B → A (2 hrs)
